Measurements published in patent publication US8895625B2, “Protective effect of thymoquinone in sepsis” (King Saud University, priority 2009, dated 2014).

Columns and labels:
[1] = tested on: sepsis caused by E. coli bacteria; test: Biochemical blood analyses following E. coli administration; assay type: in vivo, mice; settings: 6 h after E. coli administration
Protocol: (§1) In another set of experiments and after 6 h of E. coli administration, animals were lightly anesthetized with ether, and blood samples were collected, centrifuged and the resultant plasma were stored at −80° C. and used within 48 h. The levels of TNF-α, IL-1α, IL-2 and IL-10 were determined using an ELISA technique. Important biochemical parameters including blood serum creatinine, blood urea nitrogen, alanine transferase (ALT), albumin, and total lactate dehydrogenase (LDH) and creatinine kinase (CK) were also assessed in treated animals using commercially available kits according to the manufacturer's directions.

E. coli (ATCC-25992) = test: Gram-negative bacteria sepsis model (E. coli challenge), survival by Kaplan-Meier; assay type: in vivo, mice; settings: followed 2 days, P<0.01
Protocol: 1.2 Gram-Negative Bacteria Sepsis Model
Two groups of animals (twelve mice each) weighing ˜25 g were treated intraperitoneally with 0.75 or 1 mg/kg/day (for three days) of thymoquinone prepared in 10% DMSO; a control group (treated with only 10% DMSO) was also simultaneously run. Four hours after thymoquinone treatment, all groups were challenged with 2 μl/g E. coli (ATCC-25992, […] CFU/ml) prepared in normal saline. Mortality in treated groups was followed for 2 days, and survival (primary endpoint) was calculated using Kaplan-Meier analysis.

[2] = tested on: parental and multidrug resistant tumor cells; settings: cited from earlier work
[3] = tested on: endotoxin (lipopolysaccharide, LPS Escherichia coli O111:B4) induced sepsis; test: Endotoxin sepsis model (LPS challenge), survival by Kaplan-Meier; assay type: in vivo, mice; settings: 4 h before 2 mg/kg LPS, followed 4 days, P<0.01
Protocol: 1.1 Endotoxin Sepsis Model (LPS Escherichia coli O111:B4)
Two groups of animals (ten mice each) weighing ˜25 g were treated intraperitoneally with 1 or 2 mg/kg (single dose) of thymoquinone prepared in 10% DMSO; a control group (treated with only 10% DMSO) was also simultaneously run. Four hours after thymoquinone treatment, all groups were challenged with 2 mg/kg endotoxin (lipopolysaccharide, LPS) prepared in normal saline. Mortality of groups was followed for 4 days, and survival (primary endpoint) was calculated using Kaplan-Meier analysis.

[4] = tested on: sepsis induced by E. coli bacteria; test: Immunological serum analyses (ELISA) following E. coli administration; assay type: in vivo, mice; settings: 6 h after E. coli administration
Protocol: as §1

[5] = cited from earlier work
[6] = PROWESS trial, compared to placebo; cited from earlier work

Compound | blood urea nitrogen (kidney dysfunction biomarker) ([1]; FIG. 4A) | serum creatinine (kidney dysfunction biomarker) ([1]; FIG. 4B) | alanine transferase (liver dysfunction biomarker) ([1]; FIG. 4C) | plasma albumin level ([1]; FIG. 4D) | total creatinine kinase (marker of tissue injury) ([1]; FIG. 4E) | total lactate dehydrogenase (marker of tissue injury) ([1]; FIG. 4F) | protection efficacy against mortality in sepsis induced by Gram-negative bacteria (E. coli (ATCC-25992); 0.75 mg/kg/day i.p. for three days) | protection efficacy against mortality in sepsis induced by Gram-negative bacteria (E. coli (ATCC-25992); 1 mg/kg/day i.p. for three days) | cytotoxicity to parental and multidrug resistant tumor cells [2] | protection efficacy against mortality in endotoxin induced sepsis ([3]; 1 mg/kg i.p. single dose) | protection efficacy against mortality in endotoxin induced sepsis ([3]; 2 mg/kg i.p. single dose) | TNF-α level ([4]; FIG. 5A) | IL-1α level ([4]; FIG. 5B) | IL-2 level ([4]; FIG. 5C) | IL-10 level ([4]; FIG. 5D) | efficacy in sepsis patients ([5]; patients with a low risk of death or pediatric patients) | 28-day mortality rate ([5]; subgroup with recent surgery and single-organ dysfunction, placebo 14.1%, P=0.03) | absolute decrease in mortality rate [6] | relative risk reduction (mortality) [6]
CC1=CC(=O)C(C(C)C)=CC1=O [thymoquinone, 2-isopropyl-5-methyl-1,4-benzoquinone] | Important reductions | Important reductions | Important reductions | improvement in albumin level | Important reductions | Important reductions | about 90% | about 90% | cytotoxic | about 80% | ~90% | Significant reductions | Significant reductions | Significant reductions | Significant reductions | – | – | – | –
drotrecogin alfa | – | – | – | – | – | – | – | – | – | – | – | – | – | – | – | not effective | 20.7% | 6% | 19%
